Here are results for 17 compounds from patent US9662339B2, “Benzodioxane inhibitors of leukotriene production for combination therapy” (Boehringer Ingelheim International GmbH, priority 2012, dated 2017).

Data set [1] concerns the target human LTA4 hydrolase (Homo sapiens (Human), UniProt P09960). Nature of the data set: LTA4H Enzyme assay (cleavage of Arg-AMC, fluorescence). The format is biochemical. To be noted: LTA4H Enzyme 1 nM, Arg-AMC substrate 50 μM, room temperature 1 h. On the procedure:
The compounds of the invention are assessed for the ability to interact with human LTA4 hydrolase in an enzymatic assay that measures the ability of the enzyme to cleave the peptide bond of arginyl-aminomethylcoumarin (Arg-AMC). LTA4H Enzyme (1 nM final), Arg-AMC substrate (50 μM final), and compound are combined in a reaction buffer (50 mM Tris-HCl (pH 7.5), 100 mM KCl, 0.5% bovine serum albumin) at room temperature for 1 h. The formation of product is assessed by measuring the fluorescence of aminomethylcoumarin product (excitation wavelength 380 nm/emission wavelength 460 nm).

Data set [2] concerns apoE-/- mouse model of atherosclerosis. Nature of the data set: apoE-/- mouse model of atherosclerosis. The format is in vivo.
The subject of data set [3] is New Zealand white rabbit model of atherosclerosis. Kind of data set: New Zealand white rabbit model of atherosclerosis, combination with simvastatin. It is filed as in vivo. On the procedure: In Vivo Studies Materials and Method: Rabbit Atherosclerosis Study Methods
The in-life portions of these studies were conducted at Covance Labs (Greenfield, Ind.). NZW rabbits were placed on a HF/HC diet manufactured by Research Diets Inc. (C30355) containing 0.25% cholesterol, 3% peanut oil, and 3% coconut oil for 3 weeks before randomization into treatment groups of 23 animals based on cholesterol levels and LTB4 production. Rabbits with cholesterol levels below 250 mg/dL at the start of treatment were removed from further analysis. The rabbits were fed 125 g of rabbit chow each day and both food consumption and body weights were measured throughout the study period. After 3 weeks the rabbits were either continued on this same diet for 10 weeks (control) or treated with Compound 200 in the same food formulation. Compound treated groups are group 1: compound 200 (3 mg/kg) and simvastatin (2.5 mg/kg); and group 2: compound 200 (15 mg/kg) and simvastatin (2.5 mg/kg). Another group of rabbits were treated with simvastatin alone at a dose of 2.5 mg/kg. During this time, plasma samples were taken for cholesterol, compound exposure, ALT and AST activity, and ex vivo LTB4 production at treatment week 0, 2, 4 and 10. Plasma samples for HDL and LDL levels were taken at week 2, 4 and 10. The animals were sacrificed after ten weeks of treatment, perfused with 10% formalin, and their descending aortas dissected out and placed in […] for transport to Boehringer Ingelheim Pharmaceuticals Inc. for processing. The aortas were pinned out onto the silicone surface inside a metal dish and stained with Sudan IV stain. Atherosclerosis development was determined by image analysis software after photographing the vessels. The percentage of the total vessel staining positive was determined
The mean value of each parameter was calculated for each different treatment group and compared to the control value. A one way ANOVA was used to compare treatment groups to the control group using a Dunnett's test for multiplicity of measures using Excell Stat software. As a pre-planned measurement the mean value of compound 200 treatment groups were individually compared to the simvastatin alone group by a Student's T test. Statistical significance was considered at the p<0.05 level.

Data set [4] deals with synthesis of LTB4 in human whole blood. Kind of data set: LTB4 production inhibition assay in human whole blood (HWB). The format is cell-based. To be noted: heparinized human whole blood, calcimycin 20 μM, 37° C. On the procedure: The compounds of the invention are additionally tested in a human whole blood (HWB) assay to determine their ability to inhibit the synthesis of LTB4 in a cellular system. Compounds are combined with heparinized human whole blood and incubated for 15 minutes at 37° C. Calcimycin (20 μM final, prepared in phosphate-buffered saline, pH 7.4) is then added and the mixture is incubated for another 30 minutes at 37° C. The samples are centrifuged for 5 min at low speed (1500×g) and the plasma layer is removed. Plasma LTB4 concentrations are then measured using an antibody-based homogenous time-resolved fluorescence method (CisBio, Bedford, Mass.). In general, the preferred potency range (IC50) of compounds in the HWB assay is between 10 nM to 10 μM, the more preferred potency range is 10 nM to 1 μM, and the most preferred potency range is 10 nM to 100 nM.

Where [5] appears, read: in combination with simvastatin, compared to the simvastatin treated group.

Broadly, the IC50 is the point on the concentration scale where inhibition reaches its midpoint.

Sequence of human LTA4 hydrolase (P09960 whole entry): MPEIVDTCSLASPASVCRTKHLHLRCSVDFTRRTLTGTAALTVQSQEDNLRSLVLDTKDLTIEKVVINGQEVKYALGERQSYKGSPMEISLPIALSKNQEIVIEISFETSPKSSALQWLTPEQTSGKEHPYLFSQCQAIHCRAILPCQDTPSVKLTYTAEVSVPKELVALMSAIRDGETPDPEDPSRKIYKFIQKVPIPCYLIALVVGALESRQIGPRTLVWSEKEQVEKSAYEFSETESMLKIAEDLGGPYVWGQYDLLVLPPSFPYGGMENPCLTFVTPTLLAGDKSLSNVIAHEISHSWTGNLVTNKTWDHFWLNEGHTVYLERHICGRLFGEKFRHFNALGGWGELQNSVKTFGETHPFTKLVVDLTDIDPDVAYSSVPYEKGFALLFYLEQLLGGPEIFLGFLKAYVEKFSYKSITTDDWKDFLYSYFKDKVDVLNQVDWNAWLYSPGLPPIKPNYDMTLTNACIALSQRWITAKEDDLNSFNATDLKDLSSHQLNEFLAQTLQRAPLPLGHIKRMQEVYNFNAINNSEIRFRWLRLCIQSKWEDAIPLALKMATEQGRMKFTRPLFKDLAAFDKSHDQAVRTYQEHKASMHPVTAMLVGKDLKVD

In data set [1], `CS(=O)(=O)NC1CCN(Cc2ccc(C3COc4ccccc4O3)cc2)CC1` (stereo not drawn) [Example 48, N-{l-[4-(2,3-dihydro-1,4-benzodioxin-2-yl)benzyl]piperidin-4-yl}methanesulfonamide] displayed an IC50 of 0.16 nM.

`O=C1CCCN1CC1CCN(Cc2ccc(C3COc4ccccc4O3)cc2)CC1` (stereo not shown) [Example 50, 1-({1-[4-(2,3-dihydro-1,4-benzodioxin-2-yl)benzyl]piperidin-4-yl}methyl)pyrrolidin-2-one]: in data set [1], the IC50 amounted to 0.6 nM.

As to `CN(C)C(=O)C1CCN(Cc2ccc(C3COc4ccccc4O3)cc2)CC1` (stereo not shown) [Example 51, 1-[4-(2,3-dihydro-1,4-benzodioxin-2-yl)benzyl]-N,N-dimethylpiperidine-4-carboxamide], the midpoint of inhibition in data set [1], the IC50, lay at 0.82 nM.

In data set [1], `c1cncc(CNCc2ccc(C3COc4ccccc4O3)cc2)c1` (stereo not shown) [Example 54, 1-[4-(2,3-dihydro-1,4-benzodioxin-2-yl)phenyl]-N-(pyridin-3-ylmethyl)methanamine] displayed a concentration for half-maximal inhibition (IC50) of 5.93 nM.

In data set [1], `O=C(O)C1CCCN(Cc2ccc(C3COc4ccccc4O3)cc2)C1` (stereo not shown) [Example 113, 1-[4-(2,3-dihydro-1,4-benzodioxin-2-yl)benzyl]piperidine-3-carboxylic acid] gave an IC50 of 2.49 nM.

For the compound `NC(=O)C1CCCN(Cc2ccc(C3COc4ccccc4O3)cc2)C1` (stereo not shown) [Example 114, 1-[4-(2,3-dihydro-1,4-benzodioxin-2-yl)benzyl]piperidine-3-carboxamide], half-maximal inhibition in data set [1] (IC50) required 0.77 nM.

Consider `F[C@H]1CCN(Cc2ccc(C3COc4ccccc4O3)cc2)C1` (stereo partly drawn) [Example 115, (3S)-1-[4-(2,3-dihydro-1,4-benzodioxin-2-yl)benzyl]-3-fluoropyrrolidine], for which half-maximal inhibition in data set [1] (IC50) required 3.03 nM.

Compound `OC1CCN(Cc2ccc([C@H]3COc4ccccc4O3)cc2)CC1` [Example 192, (S)-1-[4-(2,3-Dihydro-benzo[1,4]dioxin-2-yl)-benzyl]-piperidin-4-ol] registered an IC50 in data set [1] of 0.43 nM.

The compound `OC1CCN(Cc2ccc([C@@H]3COc4ccccc4O3)cc2)CC1` [Example 193, (R)-1-[4-(2,3-Dihydro-benzo[1,4]dioxin-2-yl)-benzyl]-piperidin-4-ol] registered an IC50 in data set [1] of 5.35 nM.

Take `O=C1NCCC12CCN(Cc1ccc([C@H]3COc4ccccc4O3)cc1)CC2` [Example 194, 8-[(S)-4-(2,3-Dihydro-benzo[1,4]dioxin-2-yl)-benzyl]-2,8-diaza-spiro[4.5]decan-1-one]: in data set [1], 0.15 nM corresponded to half-maximal inhibition (IC50).

`O=C1NCCC12CCN(Cc1ccc([C@@H]3COc4ccccc4O3)cc1)CC2` [Example 195, 8-[(R)-4-(2,3-Dihydro-benzo[1,4]dioxin-2-yl)-benzyl]-2,8-diaza-spiro[4.5]decan-1-one] showed an IC50 in data set [1] of 1.59 nM.

`c1ccc2c(c1)OC[C@H](c1ccc(CN3CCCC3)cc1)O2` [Example 196, 1-[(S)-4-(2,3-dihydro-benzo[1,4]dioxin-2-yl)-benzyl]-pyrrolidine]: the IC50 in data set [1] was 0.39 nM.

`c1ccc2c(c1)OC[C@@H](c1ccc(CN3CCCC3)cc1)O2` [Example 197, 1-[(R)-4-(2,3-dihydro-benzo[1,4]dioxin-2-yl)-benzyl]-pyrrolidine] returned an IC50 in data set [1] of 2.69 nM.

For `c1ccc2c(c1)OC[C@H](c1ccc(CN3CCOCC3)cc1)O2` [Example 198, 4-[(S)-4-(2,3-dihydro-benzo[1,4]dioxin-2-yl)-benzyl]-morpholine], half-maximal inhibition in data set [1] (IC50) was put at 2.28 nM.

Consider `c1ccc2c(c1)OC[C@@H](c1ccc(CN3CCOCC3)cc1)O2` [Example 199, 4-[(R)-4-(2,3-dihydro-benzo[1,4]dioxin-2-yl)-benzyl]-morpholine], for which half-maximal inhibition in data set [1] (IC50) was put at 40.1 nM.

Regarding `O=C(O)C1CCN(Cc2ccc([C@H]3COc4ccccc4O3)cc2)CC1` [Example 200, (S)-1-[4-(2,3-dihydro-benzo[1,4]dioxin-2-yl)-benzyl]-piperidine-4-carboxylic acid], the “plaque area in the descending aorta” value in data set [2] is “reduce plaque area”. Further, in data set [3] (in combination with simvastatin 2.5 mg/kg vs simvastatin alone, 10 weeks chow dosing, p<0.05), the “reduction in plaque area within the descending aorta in addition to the reduction due to statin treatment” value is listed as 35%. For the same compound, the “plaque area in the descending aorta of rabbits (FIG. 1)” value in data set [3] (in combination with simvastatin compared to simvastatin treatment alone) is reported as “further reduces plaque area”. In addition, in data set [3] (setting [5]), the “effect on body weight” value is recorded as “no significant effects”, the “effect on plasma cholesterol” value is reported as “no significant effects” and the effect on triglycerides entry is “no significant effects”.

`COCC(=O)NC1CCN(Cc2ccc([C@H]3COc4cccnc4O3)cc2)CC1` [Example 252, N-{1-[(S)-4-(2,3-Dihydro-[1,4]dioxino[2,3-b]pyridin-3-yl)-benzyl]-piperidin-4-yl}-2-methoxy-acetamide]: the IC50 in data set [4] was 42 nM.
